Source: ChEMBL document CHEMBL5653598, “In vivo antitumor activity of NVP-AEW541-A novel, potent, and selective inhibitor of the IGF-IR kinase” (Cancer Cell, 2004)
pIC50: −log10 of the molar value. Active and inactive are the calls of the source. The rule behind the calls is not given here.

Tests used:
NWT-21 [1] = assay: Antitumor activity against mouse NWT-21 cells xenografted in Hsd athymic nude mouse assessed as inhibition of tumor growth at 30 mg/kg, po bid administered for 7 weeks relative to control; type: functional; details: NWT-21, 1176 h, read-out: GI
[2] = biological target: Hepatocyte growth factor receptor (Homo sapiens, UniProt P08581); assay: Inhibition of GST tagged c-Met (unknown origin) expressed in baculovirus at pH 7.6 measured after 10 to 30 mins in presence of gamma-[33P]-ATP by scintillation counter analysis
[3] = biological target: T1, Mast/stem cell growth factor receptor Kit (Homo sapiens, UniProt P10721); assay: Inhibition of c-Kit (unknown origin) in human GIST882 cells assessed as inhibition of autophosphorylation of c-Kit incubated for 90 mins in presence of anti-CD117 antibody by ELISA analysis; type: cell-based
Insulin receptor [4] = biological target: T2, Insulin receptor (Homo sapiens, UniProt P06213); assay: Inhibition of Ins-R in A14 [Human melanoma] cells assessed as inhibition of autophosphorylation of Ins-R incubated for 90 mins followed by insulin stimulation measured after 10 mins by ELISA analysis; type: cell-based
NWT-21 [5] = assay: Antitumor activity against mouse NWT-21 cells xenografted in Hsd athymic nude mouse assessed as inhibition of tumor growth at 20 mg/kg, po bid administered for 7 weeks relative to control; type: functional; details: NWT-21, po, 1176 h
NWT-21 [6] = details: Mus musculus, dose 50.0 mg/kg, route po, time 1.0 hrs
[7] = biological target: T3, Receptor-type tyrosine-protein kinase FLT3 (Homo sapiens, UniProt P36888); assay: Inhibition of GST tagged human Flt-3 expressed in baculovirus at pH 7.6 measured after 15 mins in presence of gamma-[33P]-ATP by scintillation counter analysis
T3 sequence (P36888 whole entry): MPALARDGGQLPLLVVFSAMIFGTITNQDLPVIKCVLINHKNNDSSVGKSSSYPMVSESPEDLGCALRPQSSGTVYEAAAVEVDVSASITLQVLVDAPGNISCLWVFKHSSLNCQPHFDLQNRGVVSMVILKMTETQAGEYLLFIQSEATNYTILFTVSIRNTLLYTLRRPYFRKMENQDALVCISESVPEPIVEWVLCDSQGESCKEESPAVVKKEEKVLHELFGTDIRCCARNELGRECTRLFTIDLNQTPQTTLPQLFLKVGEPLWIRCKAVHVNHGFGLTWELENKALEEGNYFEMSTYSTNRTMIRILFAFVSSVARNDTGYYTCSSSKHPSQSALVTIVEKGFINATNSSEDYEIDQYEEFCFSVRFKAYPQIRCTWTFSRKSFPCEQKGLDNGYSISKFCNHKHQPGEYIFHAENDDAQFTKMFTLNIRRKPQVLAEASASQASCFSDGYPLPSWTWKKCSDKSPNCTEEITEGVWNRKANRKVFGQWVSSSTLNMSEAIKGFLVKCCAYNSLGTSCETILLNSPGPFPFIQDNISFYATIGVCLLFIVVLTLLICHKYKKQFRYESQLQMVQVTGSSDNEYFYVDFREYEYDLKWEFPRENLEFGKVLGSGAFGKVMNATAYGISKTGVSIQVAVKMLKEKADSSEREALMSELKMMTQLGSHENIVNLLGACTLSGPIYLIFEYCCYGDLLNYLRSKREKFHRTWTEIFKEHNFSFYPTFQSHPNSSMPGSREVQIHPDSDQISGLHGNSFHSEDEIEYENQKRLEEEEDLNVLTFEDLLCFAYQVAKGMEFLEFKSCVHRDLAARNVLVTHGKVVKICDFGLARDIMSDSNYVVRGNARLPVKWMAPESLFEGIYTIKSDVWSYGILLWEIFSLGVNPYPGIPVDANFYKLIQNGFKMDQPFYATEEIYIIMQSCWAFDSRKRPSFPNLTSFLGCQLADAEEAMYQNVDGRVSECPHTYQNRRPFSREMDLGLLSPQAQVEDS

NWT-21 [8] = details: Mus musculus, dose 50.0 mg/kg, route po, time 1.0 hrs; remark: listed apart in the source
Mus musculus [9] = species on record: Mus musculus; details: Harlan, dose 50.0 mg/kg, route po, time 1.0 hrs
NWT-21 [10] = assay: Antitumor activity against mouse NWT-21 cells xenografted in Hsd athymic nude mouse assessed as plasma insulin level at 50 mg/kg, po bid measured after 10 day; type: functional
[11] = biological target: Platelet-derived growth factor receptor beta (Homo sapiens, UniProt P09619); assay: Inhibition of GST tagged PDGFR-beta (unknown origin) expressed in baculovirus at pH 7.6 measured after 10 to 30 mins in presence of gamma-[33P]-ATP by scintillation counter analysis
NWT-21 [12] = details: Mus musculus, dose 50.0 mg/kg, route po, time 1.0 hrs; remark: listed apart in the source
[13] = Inhibition of PDGFR (unknown origin) in mouse BALB/3T3 clone A31 cells assessed as inhibition of autophosphorylation of PDGFR incubated for 90 mins followed by PDGF BB stimulation measured after 10 mins in presence of anti-PDGF-R Receptor Type A/B antibody by ELISA analysis; type: cell-based; details: Homo sapiens
[14] = biological target: Vascular endothelial growth factor receptor 3 (Homo sapiens, UniProt P35916); assay: Inhibition of GST tagged human Flt-4 expressed in baculovirus at pH 7.6 measured after 15 mins in presence of gamma-[33P]-ATP by scintillation counter analysis
[15] = Toxicity in Hsd athymic nude mouse xenografted with NWT-21 cells assessed as body weight at 20 to 50 mg/kg, po bid administered for 7 weeks; type: organism-based; details: in vivo, 1176 h, dose 20-50 mg/kg
NWT-21 [16] = assay: Antitumor activity against mouse NWT-21 cells xenografted in Hsd athymic nude mouse assessed as inhibition of tumor growth at 50 mg/kg, po bid administered for 7 weeks relative to control; type: functional; details: NWT-21, 1176 h
[17] = Inhibition of rabbit PKA expressed in baculovirus at pH 7.0 measured after 20 mins in presence of gamma-[33P]-ATP by scintillation counter analysis; parameters: species or system Oryctolagus cuniculus
[18] = biological target: Vascular endothelial growth factor receptor 1 (Homo sapiens, UniProt P17948); assay: Inhibition of GST tagged Flt-1 (unknown origin) expressed in baculovirus at pH 7.6 measured after 10 to 30 mins in presence of gamma-[33P]-ATP by scintillation counter analysis
[19] = biological target: Tyrosine-protein kinase ABL1 (Homo sapiens, UniProt P00519); assay: Inhibition of GST tagged c-Abl (unknown origin) expressed in baculovirus infected Sf9 cells at pH 7.5 measured after 10 mins in presence of gamma-[33P]-ATP by scintillation counter analysis
[20] = biological target: Receptor tyrosine-protein kinase erbB-4 (Homo sapiens, UniProt Q15303); assay: Inhibition of GST tagged human HER-4 expressed in baculovirus at pH 7.5 measured after 15 mins in presence of gamma-[33P]-ATP by scintillation counter analysis
[21] = biological target: Proto-oncogene tyrosine-protein kinase Src (Gallus gallus, UniProt P00523); assay: Inhibition of GST tagged chicken c-Src expressed in baculovirus at pH 7.5 measured after 10 mins in presence of gamma-[33P]-ATP by scintillation counter analysis
Mus musculus [22] = species on record: Mus musculus; details: Harlan, dose 50.0 mg/kg, route po, time 1.0 hrs; remark: listed apart in the source
NWT-21 [23] = details: Mus musculus, dose 50.0 mg/kg, route po, time 1.0 hrs; remark: listed apart in the source
[24] = biological target: Fibroblast growth factor receptor 1 (Homo sapiens, UniProt P11362); assay: Inhibition of GST tagged FGFR-1 (unknown origin) expressed in baculovirus at pH 7.6 measured after 10 to 30 mins in presence of gamma-[33P]-ATP by scintillation counter analysis
[25] = Inhibition of starfish Cdk1/cycB expressed in baculovirus at pH 8.0 measured after 30 mins in presence of gamma-[33P]-ATP by scintillation counter analysis; parameters: species or system Asteroidea
Mus musculus [26] = species on record: Mus musculus; details: Harlan, dose 50.0 mg/kg, route po, time 1.0 hrs; remark: listed apart in the source
NWT-21 [27] = assay: Antitumor activity against mouse NWT-21 cells xenografted in Hsd athymic nude mouse assessed as plasma insulin level at 50 mg/kg, po bid measured after 1 day; type: functional
Angiopoietin-1 receptor = Angiopoietin-1 receptor (Homo sapiens, UniProt Q02763); assay: Inhibition of GST tagged Tek (unknown origin) expressed in baculovirus at pH 7.6 measured after 10 to 30 mins in presence of gamma-[33P]-ATP by scintillation counter analysis
[28] = biological target: RAC-alpha serine/threonine-protein kinase (Homo sapiens, UniProt P31749); assay: Inhibition of human PKB expressed in baculovirus at pH 7.2 measured after 30 mins in presence of gamma-[33P]-ATP by scintillation counter analysis
[29] = biological target: Receptor tyrosine-protein kinase erbB-2 (Homo sapiens, UniProt P04626); assay: Inhibition of GST tagged human HER-2 expressed in baculovirus at pH 7.5 measured after 15 mins in presence of gamma-[33P]-ATP by scintillation counter analysis
[30] = biological target: T4, Epidermal growth factor receptor (Homo sapiens, UniProt P00533); assay: Inhibition of HER-1 in human A-431 cells assessed as inhibition of autophosphorylation of HER-1 incubated for 90 mins followed by EGF stimulation measured after 10 mins in presence of anti-EGFR Ab5 by ELISA analysis; type: cell-based
[31] = biological target: Vascular endothelial growth factor receptor 2 (Homo sapiens, UniProt P35968); assay: Inhibition of GST tagged KDR (unknown origin) expressed in baculovirus at pH 7.6 measured after 10 to 30 mins in presence of gamma-[33P]-ATP by scintillation counter analysis
NWT-21 [32] = assay: Antitumor activity against mouse NWT-21 cells xenografted in Hsd athymic nude mouse assessed as plasma glucose level at 50 mg/kg, po bid measured after 10 days; type: functional; details: time 10 day
[33] = biological target: T1, Mast/stem cell growth factor receptor Kit; assay: Inhibition of GST tagged c-Kit (unknown origin) expressed in baculovirus at pH 7.6 measured after 10 to 30 mins in presence of gamma-[33P]-ATP by scintillation counter analysis
Insulin receptor [34] = biological target: T2, Insulin receptor; assay: Inhibition of GST tagged human Ins-R expressed in baculovirus at pH 7.6 measured after 20 mins in presence of gamma-[33P]-ATP by scintillation counter analysis
[35] = biological target: T4, Epidermal growth factor receptor; assay: Inhibition of GST tagged human HER-1 expressed in baculovirus at pH 7.5 measured after 15 mins in presence of gamma-[33P]-ATP by scintillation counter analysis
NWT-21 [36] = assay: Antitumor activity against mouse NWT-21 cells xenografted in Hsd athymic nude mouse assessed as plasma glucose level at 50 mg/kg, po bid measured after 1 day; type: functional
[37] = biological target: RAF proto-oncogene serine/threonine-protein kinase (Homo sapiens, UniProt P04049); assay: Inhibition of GST-tagged c-Raf-1 (unknown origin) expressed in baculovirus infected in Sf21 cells at pH 7.5 measured after 30 mins in presence of gamma-[33P]-ATP by scintillation counter analysis

T4 sequence (P00533 whole entry): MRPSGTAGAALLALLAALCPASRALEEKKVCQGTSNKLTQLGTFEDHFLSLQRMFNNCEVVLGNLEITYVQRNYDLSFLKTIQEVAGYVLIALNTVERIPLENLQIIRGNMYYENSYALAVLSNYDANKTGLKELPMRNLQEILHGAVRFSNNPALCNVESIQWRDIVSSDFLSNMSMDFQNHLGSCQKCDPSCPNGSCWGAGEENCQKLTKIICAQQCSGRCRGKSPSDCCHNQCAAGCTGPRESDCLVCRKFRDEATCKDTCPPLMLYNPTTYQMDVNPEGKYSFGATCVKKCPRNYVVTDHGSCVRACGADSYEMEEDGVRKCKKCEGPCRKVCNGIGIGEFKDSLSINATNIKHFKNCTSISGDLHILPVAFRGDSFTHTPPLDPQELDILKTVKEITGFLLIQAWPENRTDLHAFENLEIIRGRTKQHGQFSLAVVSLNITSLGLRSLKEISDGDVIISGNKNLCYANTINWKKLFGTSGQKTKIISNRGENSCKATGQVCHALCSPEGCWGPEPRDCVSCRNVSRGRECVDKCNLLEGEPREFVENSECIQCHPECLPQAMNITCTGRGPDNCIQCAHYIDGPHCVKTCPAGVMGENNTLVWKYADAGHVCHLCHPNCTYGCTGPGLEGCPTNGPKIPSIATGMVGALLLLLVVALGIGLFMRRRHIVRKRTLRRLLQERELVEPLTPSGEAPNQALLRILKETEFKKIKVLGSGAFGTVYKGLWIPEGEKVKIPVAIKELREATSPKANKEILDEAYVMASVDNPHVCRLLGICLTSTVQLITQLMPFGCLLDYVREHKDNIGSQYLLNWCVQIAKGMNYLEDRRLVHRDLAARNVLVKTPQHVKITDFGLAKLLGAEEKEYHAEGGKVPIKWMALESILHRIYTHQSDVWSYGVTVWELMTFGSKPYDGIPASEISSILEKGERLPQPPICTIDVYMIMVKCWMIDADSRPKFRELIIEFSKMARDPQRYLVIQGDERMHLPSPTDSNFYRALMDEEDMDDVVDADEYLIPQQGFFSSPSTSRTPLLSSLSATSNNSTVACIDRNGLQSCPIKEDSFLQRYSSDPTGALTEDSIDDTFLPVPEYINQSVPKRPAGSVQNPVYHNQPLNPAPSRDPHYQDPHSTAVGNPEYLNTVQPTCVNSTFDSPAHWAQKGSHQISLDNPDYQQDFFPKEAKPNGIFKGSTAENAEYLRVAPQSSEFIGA
T2 sequence (P06213 28-758 limits assumed): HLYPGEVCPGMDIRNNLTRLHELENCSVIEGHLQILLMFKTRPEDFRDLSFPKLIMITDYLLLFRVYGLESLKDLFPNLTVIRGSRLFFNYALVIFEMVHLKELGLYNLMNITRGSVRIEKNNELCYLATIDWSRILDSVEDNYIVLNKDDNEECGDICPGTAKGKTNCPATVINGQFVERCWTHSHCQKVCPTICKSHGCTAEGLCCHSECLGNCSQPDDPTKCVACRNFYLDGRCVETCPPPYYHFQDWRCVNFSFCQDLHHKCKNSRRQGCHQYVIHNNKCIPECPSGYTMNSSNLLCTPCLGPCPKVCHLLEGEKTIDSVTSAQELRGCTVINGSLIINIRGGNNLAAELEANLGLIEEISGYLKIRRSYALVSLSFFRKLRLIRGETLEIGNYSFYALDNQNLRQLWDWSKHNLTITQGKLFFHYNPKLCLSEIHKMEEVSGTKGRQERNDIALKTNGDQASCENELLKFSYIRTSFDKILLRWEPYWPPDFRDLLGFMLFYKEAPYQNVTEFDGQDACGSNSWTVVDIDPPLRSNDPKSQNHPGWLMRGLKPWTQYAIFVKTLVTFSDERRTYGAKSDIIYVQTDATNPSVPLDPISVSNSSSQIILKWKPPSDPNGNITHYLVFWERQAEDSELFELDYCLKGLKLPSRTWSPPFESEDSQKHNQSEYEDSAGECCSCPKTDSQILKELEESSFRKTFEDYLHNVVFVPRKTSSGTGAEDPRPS
T2 sequence (P06213 763-1382 limits assumed): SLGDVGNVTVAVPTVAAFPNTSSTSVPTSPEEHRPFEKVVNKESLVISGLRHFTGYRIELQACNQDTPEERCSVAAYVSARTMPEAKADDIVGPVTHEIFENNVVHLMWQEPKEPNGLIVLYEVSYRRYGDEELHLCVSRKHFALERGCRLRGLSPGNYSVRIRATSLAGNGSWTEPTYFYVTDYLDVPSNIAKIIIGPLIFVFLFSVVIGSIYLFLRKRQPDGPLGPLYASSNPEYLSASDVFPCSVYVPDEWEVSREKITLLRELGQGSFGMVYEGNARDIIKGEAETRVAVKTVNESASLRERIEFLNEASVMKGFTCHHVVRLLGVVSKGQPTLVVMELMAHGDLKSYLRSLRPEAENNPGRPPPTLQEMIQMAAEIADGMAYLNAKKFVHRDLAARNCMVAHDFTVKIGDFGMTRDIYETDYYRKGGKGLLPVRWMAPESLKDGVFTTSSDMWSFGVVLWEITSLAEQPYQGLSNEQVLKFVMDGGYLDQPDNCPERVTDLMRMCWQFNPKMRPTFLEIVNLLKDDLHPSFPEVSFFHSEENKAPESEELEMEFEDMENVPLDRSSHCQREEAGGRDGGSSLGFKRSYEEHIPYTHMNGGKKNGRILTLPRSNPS
T1 sequence (P10721 whole entry): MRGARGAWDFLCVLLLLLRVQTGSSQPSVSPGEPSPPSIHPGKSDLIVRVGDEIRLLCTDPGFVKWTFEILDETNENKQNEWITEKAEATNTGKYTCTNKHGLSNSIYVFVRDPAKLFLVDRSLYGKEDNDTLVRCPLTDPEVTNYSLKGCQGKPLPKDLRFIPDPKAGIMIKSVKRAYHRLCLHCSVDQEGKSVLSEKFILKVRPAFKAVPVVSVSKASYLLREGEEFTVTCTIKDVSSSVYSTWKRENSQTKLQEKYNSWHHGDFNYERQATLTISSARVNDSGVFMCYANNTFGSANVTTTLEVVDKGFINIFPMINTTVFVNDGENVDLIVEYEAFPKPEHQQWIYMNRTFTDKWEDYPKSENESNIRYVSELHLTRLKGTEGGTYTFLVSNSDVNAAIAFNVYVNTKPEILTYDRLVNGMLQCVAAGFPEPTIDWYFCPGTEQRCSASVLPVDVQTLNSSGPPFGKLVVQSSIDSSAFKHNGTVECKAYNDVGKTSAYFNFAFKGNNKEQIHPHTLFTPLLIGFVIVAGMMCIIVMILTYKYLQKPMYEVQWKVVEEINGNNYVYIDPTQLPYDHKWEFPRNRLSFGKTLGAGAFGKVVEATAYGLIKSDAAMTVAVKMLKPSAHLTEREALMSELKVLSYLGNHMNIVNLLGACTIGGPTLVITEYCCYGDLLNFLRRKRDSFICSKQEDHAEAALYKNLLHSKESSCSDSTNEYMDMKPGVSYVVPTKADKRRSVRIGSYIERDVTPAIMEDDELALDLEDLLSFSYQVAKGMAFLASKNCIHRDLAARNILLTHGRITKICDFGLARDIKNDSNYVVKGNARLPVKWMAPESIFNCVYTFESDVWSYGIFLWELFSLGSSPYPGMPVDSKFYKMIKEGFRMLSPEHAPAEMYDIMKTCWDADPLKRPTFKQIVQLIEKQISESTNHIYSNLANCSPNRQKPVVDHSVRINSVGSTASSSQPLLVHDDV
Vascular endothelial growth factor receptor 1, sequence (P17948 whole entry): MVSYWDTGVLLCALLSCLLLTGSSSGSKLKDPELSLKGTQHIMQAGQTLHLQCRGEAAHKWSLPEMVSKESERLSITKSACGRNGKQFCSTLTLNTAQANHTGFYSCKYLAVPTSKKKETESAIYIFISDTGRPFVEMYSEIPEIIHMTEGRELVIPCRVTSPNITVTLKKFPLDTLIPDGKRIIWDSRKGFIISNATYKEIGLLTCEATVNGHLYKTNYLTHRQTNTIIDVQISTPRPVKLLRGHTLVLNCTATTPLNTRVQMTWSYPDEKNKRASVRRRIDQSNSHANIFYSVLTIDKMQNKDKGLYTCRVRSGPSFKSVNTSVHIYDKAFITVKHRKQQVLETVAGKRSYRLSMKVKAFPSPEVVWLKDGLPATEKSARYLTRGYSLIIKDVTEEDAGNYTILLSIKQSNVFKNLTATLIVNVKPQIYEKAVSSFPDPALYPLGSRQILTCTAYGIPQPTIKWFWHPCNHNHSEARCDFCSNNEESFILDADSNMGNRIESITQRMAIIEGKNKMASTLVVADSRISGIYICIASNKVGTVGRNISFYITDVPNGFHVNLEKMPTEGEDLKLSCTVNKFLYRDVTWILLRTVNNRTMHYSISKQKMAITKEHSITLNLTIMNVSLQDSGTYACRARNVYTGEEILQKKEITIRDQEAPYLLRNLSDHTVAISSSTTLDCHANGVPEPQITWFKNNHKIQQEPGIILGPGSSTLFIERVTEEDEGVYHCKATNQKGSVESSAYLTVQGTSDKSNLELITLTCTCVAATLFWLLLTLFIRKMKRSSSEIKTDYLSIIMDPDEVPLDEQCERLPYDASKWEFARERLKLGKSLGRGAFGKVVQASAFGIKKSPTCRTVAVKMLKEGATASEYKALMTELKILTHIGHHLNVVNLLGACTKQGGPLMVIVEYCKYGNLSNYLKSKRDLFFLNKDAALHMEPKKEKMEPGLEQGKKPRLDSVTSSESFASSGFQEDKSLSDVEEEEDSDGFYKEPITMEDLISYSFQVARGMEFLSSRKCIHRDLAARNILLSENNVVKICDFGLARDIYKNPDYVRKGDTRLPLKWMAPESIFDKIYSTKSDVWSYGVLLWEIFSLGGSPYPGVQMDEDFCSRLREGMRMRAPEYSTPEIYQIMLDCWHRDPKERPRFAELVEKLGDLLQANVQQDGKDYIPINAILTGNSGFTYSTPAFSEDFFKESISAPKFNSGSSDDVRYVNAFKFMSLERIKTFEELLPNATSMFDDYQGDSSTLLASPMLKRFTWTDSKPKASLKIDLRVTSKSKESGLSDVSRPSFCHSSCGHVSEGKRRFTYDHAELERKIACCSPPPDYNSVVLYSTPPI

pIC50 [2]: 5.42
pIC50 [3]: < 5.30
pIC50 (Insulin receptor [4]): 5.64
pIC50 [7]: 6.38
pIC50 [11]: 5.70
pIC50 [13]: < 5.00
pIC50 [14]: 5.62
pIC50 [18]: 6.22
pIC50 [19]: < 5.00
pIC50 [20]: 5.85
pIC50 [21]: 5.62
pIC50 [24]: 5.39
pIC50 (Angiopoietin-1 receptor): 6.28
pIC50 [28]: < 5.00
pIC50 [29]: 5.39
pIC50 [30]: < 5.00
pIC50 [31]: 5.64
pIC50 [33]: 5.48
pIC50 (Insulin receptor [34]): 6.85
pIC50 [35]: 5.24
pIC50 [37]: < 5.00
Compound: Nc1ncnc2c1c(-c1cccc(OCc3ccccc3)c1)cn2[C@H]1C[C@@H](CN2CCC2)C1
inhibition in vivo at 30 mg/kg (NWT-21 [1]): 28%
T/C at 20 mg/kg (NWT-21 [5]): 32%
inhibition (NWT-21 [6]): Active
inhibition (NWT-21 [8]): Active
inhibition (Mus musculus [9]): Active
Activity (NWT-21 [10]): 28.9 uU/ml
inhibition (NWT-21 [12]): Active
Activity [15]: Non-Toxic
T/C at 50 mg/kg (NWT-21 [16]): 14%
pIC50 [17]: < 5.00
inhibition (Mus musculus [22]): Active
inhibition (NWT-21 [23]): Active
pIC50 [25]: < 5.00
inhibition (Mus musculus [26]): Active
Activity (NWT-21 [27]): 14.4 uU/ml
Activity (NWT-21 [32]): 204.4 mg/dL
Activity (NWT-21 [36]): 197.4 mg/dL
